From the NIST ThermoML archive (doi:10.1016/j.jct.2006.02.008) come the findings set out here.

± gives the expanded uncertainty stated by the source.

A short description of data set [1]: refractive index (Na D-line) (dimensionless). Conditions: 293.2 K; 101.33 kPa; Liquid; Standard Abbe refractometry.

Consider `O=C1C=CC(=O)O1` [maleic anhydride], for which the Normal melting temperature (Crystal, visual observation) amounted to 52.7 ± 0.5 °C.
For the molecule `CCOC(=O)c1ccccc1C(=O)OCC` [diethyl phthalate], in data set [1], the refractive index came to 1.5016 ± 0.0007. Further, the mass density (293.2 K, 101.33 kPa, Liquid, Pycnometric method) is 1118.2 ± 1 kg/m3.
